Patent EP0322251A2, “Benzothiopyran derivatives” (BEECHAM GROUP PLC, priority 1987, dated 1989)

System: Spontaneously hypertensive rats
Test: Blood pressure lowering activity, tail cuff method
Assay type: in vivo
Protocol: Blood Pressure Lowering Activity
Systolic blood pressures were recorded by a modification of the tail cuff method described by I.M. Claxton, M.G. Palfreyman, R.H. Poyser, R.L. Whiting, European Journal of Pharmacology, 37, 179 (1976). A W+W BP recorder, model 8005 was used to display pulses. Prior to all measurements rats were placed in a heated environment (33.5 ± 0.5°C) before transfer to a restraining cage. Each determination of blood pressure was the mean of at least 6 readings. Spontaneously hypertensive rats (ages 12-18 weeks) with systolic blood pressures >180 mmHg were considered hypertensive.

For Cc1ccc2c(c1)[C@@H](N1CCCCC1=O)[C@H](O)C(C)(C)S2(=O)=O (relative stereo) [Example 3, Trans 3.4-dihydro-4-(2-oxopiperidin-1-yl)-2,2,6-trimethyl-2H-1-benzothiapyran-3-ol-1,1-dioxide], the “% Change in Systolic Blood Pressure” value (dose 30 mg/kg, 1 hour post dose) was -25 (n=2) %, the “% Change in Systolic Blood Pressure” value (dose 30 mg/kg, 2 hours post dose) was -31 ± 7 (n=3) % and the “% Change in Systolic Blood Pressure” value (dose 30 mg/kg, 4 hours post dose) was -16 ± 2 (n=3) %. The “% Change in Systolic Blood Pressure” value (dose 30 mg/kg, 6 hours post dose) was -14 ± 3 (n=3) %.

For Cc1ccc2c(c1)C(N1CCCCC1=O)[C@H](O)C(C)(C)S2 (stereo partly drawn) [Example 1, Trans 3,4-Dihydro-4-(2-oxopiperidin-1-yl)-2,2,6-trimethyl-2H-1-benzothiapyran-3-ol], the “% Change in Systolic Blood Pressure” value (dose 1 mg/kg, 1 hour post dose) was -22 ± 5 (n=6) %, the “% Change in Systolic Blood Pressure” value (dose 1 mg/kg, 2 hours post dose) was -17 ± 6 (n=6) % and the “% Change in Systolic Blood Pressure” value (dose 1 mg/kg, 4 hours post dose) was -12 ± 11 (n=6) %.

With Cc1ccc2c(c1)C(N1CCCC1=O)=CC(C)(C)S2(=O)=O [Example 2, 4-(2-Oxopyrrolidin-1-yl)-2,2,6-trimethyl-2H-1-benzothiapyran-1,1-dioxide] the “% Change in Systolic Blood Pressure” value (dose 10 mg/kg, 1 hour post dose) was -50 ± 2 (n=5) %, the “% Change in Systolic Blood Pressure” value (dose 10 mg/kg, 2 hours post dose) was -34 ± 4 (n=5) % and the “% Change in Systolic Blood Pressure” value (dose 10 mg/kg, 4 hours post dose) was -22 ± 3 (n=4) %. For the same compound, the “% Change in Systolic Blood Pressure” value (dose 10 mg/kg, 6 hours post dose) was -15 ± 2 (n=4) %.
